Source: patent US6868215B2, “Dye thin film, production method thereof, optical switch, optical distributor, optical modulator and optical switch array” (Fuji Xerox Co., Ltd., priority 2002, dated 2005)

Assay: thermal stability: thermal decomposition temperature by thermogravimetry and differential thermal analysis
Assay type: physicochemical
Description: For the absorption characteristic, absorption spectra were measured by using a near infrared photospectrometer. Further, for the thermal stability, the thermal decomposition temperature was measured by thermogravimetry and differential thermal analysis. Further, the solubility in organic solvents such as chloroform or acetone was confirmed.

Question: With `CC(C)CN(CC(C)C)c1cc(O)c2c(c1)OC(=O)/C2=C(/[O-])C1=C2C(O)=CC(=[N+](CC(C)C)CC(C)C)C=C2OC1=O` [compound (1)] as the compound, how does the decomposition temperature read?
Answer: The decomposition temperature was 202.7 °C.
